# Test results published in patent US5929075A, “Apolipoprotein-B synthesis inhibitors” (Janssen Pharmaceutica, N.V., priority 1994, dated 1999).
# pIC50: −log10 of the molar value.
# Tested on: apolipoprotein B
# Assay: Apolipoprotein B (apo B) inhibition test in cultured human liver cells (Hepg2-cells)
# Format: cell-based
# Settings: concentration of the drug needed to reduce apoB secretion to 50% of the control, overnight at 37° C.
# Procedure: Cultured human liver cells (Hepg2-cells), which synthesize and secrete low-density lipoproteins, were incubated overnight at 37° C. in a liquid medium containing radioactively labelled leucine. Thus radioactively labelled leucine was incorporated into the apolipoprotein B. The liquid medium was decanted and the apolipoprotein B was isolated by means of a double immunoprecipitation, i.e. first an apolipoprotein B-specific antibody (antibody1) was added to the liquid medium and subsequently a second antibody (antibody2) was added which binds specifically to the apoB-antibody1 -complex. The thus formed apoB-antibody1 -antibody2 complex precipitated and was isolated by centrifuge. Quantification of the amount of apolipoprotein B synthesized during the night resulted from measuring the radioactivity of the isolated complex. To measure the inhibiting activity of the test compound, that test compound was added to the liquid medium at different concentrations and the concentration of apolipoprotein B synthesized in the presence of a test compound (concentration apoB(after)) was compared to the concentration of apolipoprotein B which was synthesized in the absence of the test compound (concentration apoB(control)). For each experiment the inhibition of apolipoprotein-B formation was expressed as
# % inhibition=100×(1-concentration of apoB(after)/concentration
# When more experiments were carried out for the same concentration, the median value of the inhibition calculated for these experiments was calculated. IC50 -values (concentration of the drug needed to reduce apoB secretion to 50% of the control) were also computed.
row,SMILES,pIC50
1,"CCC(C)n1ncn(-c2ccc(N3CCN(c4ccc(OC[C@@H]5CO[C@@](CSc6ncn(C(C)C)n6)(c6ccc(Cl)cc6)O5)cc4)CC3)cc2)c1=O (relative stereo) [Compound 112, (±)-cis-4-[4-[4-[4-[[2-(4-chlorophenyl)-2-[[[1-(1-methylethyl)-1H-1,2,4-triazol-3-yl]thio]methyl]-1,3-dioxolan-4-yl]methoxy]phenyl]-1-piperazinyl]phenyl]-2,4-dihydro-2-(1-methylpropyl)-3H-1,2,4-triazol-3-one]",6.01
2,CCC(C)n1ncn(-c2ccc(N3CCN(c4ccc(OC[C@H]5CO[C@](CSc6ccncc6)(c6ccc(Cl)cc6)O5)cc4)CC3)cc2)c1=O (relative stereo) [Compound 106],6.06
3,CCC(C)n1ncn(-c2ccc(N3CCN(c4ccc(OC[C@H]5CO[C@](CSc6nnc(C)n6C)(c6ccc(Cl)cc6)O5)cc4)CC3)cc2)c1=O (relative stereo) [Compound 56],6.64
4,CCC(C)n1ncn(-c2ccc(N3CCN(c4ccc(OC[C@H]5CO[C@](CSc6ncnn6C)(c6ccc(F)cc6F)O5)cc4)CC3)cc2)c1=O (relative stereo) [Compound 62],6.72
5,CCCn1ncnc1SC[C@]1(c2ccc(Cl)cc2)OC[C@H](COc2ccc(N3CCN(c4ccc(-n5cnn(C(C)CC)c5=O)cc4)CC3)cc2)O1 (relative stereo) [Compound 80],7.14
6,CCC(C)n1ncn(-c2ccc(N3CCN(c4ccc(OC[C@H]5CO[C@](CSc6nnnn6-c6ccccc6)(c6ccc(Cl)cc6)O5)cc4)CC3)cc2)c1=O (relative stereo) [Compound 89],6.29
7,CCC(C)n1ncn(-c2ccc(N3CCN(c4ccc(OC[C@@H]5CO[C@@](CSc6nnc(C(F)(F)F)[nH]6)(c6ccc(Cl)cc6)O5)cc4)CC3)cc2)c1=O (relative stereo) [Compound 49],6.07
8,Cn1ncnc1SC[C@]1(c2ccc(F)cc2F)OC[C@H](COc2ccc(N3CCN(c4ccc(-n5cnn(C6CCCC6)c5=O)cc4)CC3)cc2)O1 (relative stereo) [Compound 67],6.74
9,CCCCn1cnn(-c2ccc(N3CCN(c4ccc(OC[C@@H]5CO[C@@](CSc6nncn6C)(c6ccc(Cl)cc6)O5)cc4)CC3)cc2)c1=O (relative stereo) [Compound 15],7.32
10,Cn1ncnc1SC[C@]1(c2ccc(F)cc2F)OC[C@H](COc2ccc(N3CCN(c4ccc(-n5ncn(C6CCCC6)c5=O)cc4)CC3)cc2)O1 (relative stereo) [Compound 72],6.72
11,CCC(C)n1cnn(-c2ccc(N3CCN(c4ccc(OC[C@H]5CO[C@](CSc6nccs6)(c6ccc(Cl)cc6)O5)cc4)CC3)cc2)c1=O (relative stereo) [Compound 110],7.57
12,CCCCn1ncnc1SC[C@]1(c2ccc(Cl)cc2)OC[C@H](COc2ccc(N3CCN(c4ccc(-n5cnn(C(C)CC)c5=O)cc4)CC3)cc2)O1 (relative stereo) [Compound 79],7.34
13,CC(C)Cn1ncn(-c2ccc(N3CCN(c4ccc(OC[C@H]5CO[C@](CSc6ncnn6C)(c6ccc(Cl)cc6)O5)cc4)CC3)cc2)c1=O (relative stereo) [Compound 61],7.09
14,CCC(C)n1ncn(-c2ccc(N3CCN(c4ccc(OC[C@H]5CO[C@](CSc6ncccn6)(c6ccc(Cl)cc6)O5)cc4)CC3)cc2)c1=O (relative stereo) [Compound 101],6.80
15,CCCCCn1cnn(-c2ccc(N3CCN(c4ccc(OC[C@@H]5CO[C@@](CSc6nncn6C)(c6ccc(Cl)cc6)O5)cc4)CC3)cc2)c1=O (relative stereo) [Compound 18],7.39
16,CCC(C)n1ncn(-c2ccc(N3CCN(c4ccc(OC[C@H]5CO[C@](CSc6nncn6CC(C)C)(c6ccc(Cl)cc6)O5)cc4)CC3)cc2)c1=O (relative stereo) [Compound 54],7.10

# Now from value to compound:
row,pIC50,SMILES
1,7.15,"CCC(C)n1ncn(-c2ccc(N3CCN(c4ccc(OC[C@@H]5CO[C@@](CSc6nncn6C)(c6ccc(Cl)cc6)O5)cc4)CC3)cc2)c1=O (relative stereo) [Compound 22, (±)-cis-4-[4-[4-[4-[[2-(4-chlorophenyl)-2-[[(4-methyl-4H-1,2,4-triazol-3-yl)thio]methyl]-1,3-dioxolan-4-yl]methoxy]phenyl]-1-piperazinyl]-phenyl]-2,4-dihydro-2-(1-methylpropyl)-3H-1,2,4-triazol-3-one]"
2,6.70,CC(C)Cn1cnn(-c2ccc(N3CCN(c4ccc(OC[C@@H]5CO[C@@](CSc6nncn6C)(c6ccc(F)cc6)O5)cc4)CC3)cc2)c1=O (relative stereo) [Compound 5]
3,6.60,CCC(C)n1ncn(-c2ccc(N3CCN(c4ccc(OC[C@H]5CO[C@](CSc6nncn6C(C)C)(c6ccc(Cl)cc6)O5)cc4)CC3)cc2)c1=O (relative stereo) [Compound 52]
4,7.11,CCCn1cnnc1SC[C@]1(c2ccc(Cl)cc2)OC[C@H](COc2ccc(N3CCN(c4ccc(-n5cnn(C(C)CC)c5=O)cc4)CC3)cc2)O1 (relative stereo) [Compound 55]
5,6.85,CCC(C)n1ccn(-c2ccc(N3CCN(c4ccc(OC[C@H]5CO[C@](CSc6nncn6C)(c6ccc(F)cc6)O5)cc4)CC3)cc2)c1=O (relative stereo) [Compound 126]
6,7.08,CCC(C)n1ncn(-c2ccc(N3CCN(c4ccc(OC[C@H]5CO[C@](CSc6nncn6CC)(c6ccc(Cl)cc6)O5)cc4)CC3)cc2)c1=O (relative stereo) [Compound 53]
7,7.13,Cn1cnnc1SC[C@]1(c2ccc(Cl)cc2)OC[C@H](COc2ccc(N3CCN(c4ccc(-n5ccn(C6CCCC6)c5=O)cc4)CC3)cc2)O1 (relative stereo) [Compound 123]
8,7.34,CCC(C)n1ncn(-c2ccc(N3CCN(c4ccc(OC[C@H]5CO[C@](CSc6ncnn6C)(c6ccc(Cl)cc6)O5)cc4)CC3)cc2)c1=O (relative stereo) [Compound 60]
9,6.85,CC(C)Cn1ncn(-c2ccc(N3CCN(c4ccc(OC[C@@H]5CO[C@@](CSc6nncn6C)(c6ccc(Cl)cc6)O5)cc4)CC3)cc2)c1=O (relative stereo) [Compound 23]
10,7.04,CC(C)Cn1cnn(-c2ccc(N3CCN(c4ccc(OC[C@@H]5CO[C@@](CSc6nncn6C)(c6ccc(Cl)cc6)O5)cc4)CC3)cc2)c1=O (relative stereo) [Compound 3]
11,7.33,CCCCn1cnnc1SC[C@@]1(c2ccc(Cl)cc2)OC[C@@H](COc2ccc(N3CCN(c4ccc(-n5cnn(C(C)CC)c5=O)cc4)CC3)cc2)O1 (relative stereo) [Compound 51]
12,6.72,CCC(C)N1CCN(c2ccc(N3CCN(c4ccc(OC[C@H]5CO[C@](CSc6nncn6C)(c6ccc(Cl)cc6)O5)cc4)CC3)cc2)C1=O (relative stereo) [Compound 94]
13,7.19,CC[C@H](C)n1ncn(-c2ccc(N3CCN(c4ccc(OC[C@@H]5CO[C@@](CSc6nncn6C)(c6ccc(Cl)cc6)O5)cc4)CC3)cc2)c1=O [Compound 38]
14,7.10,CCC(CC)n1cnn(-c2ccc(N3CCN(c4ccc(OC[C@@H]5CO[C@@](CSc6nncn6C)(c6ccc(Cl)cc6)O5)cc4)CC3)cc2)c1=O (relative stereo) [Compound 7]
15,6.96,CCC(CC)n1ncn(-c2ccc(N3CCN(c4ccc(OC[C@@H]5CO[C@@](CSc6nncn6C)(c6ccc(F)cc6)O5)cc4)CC3)cc2)c1=O (relative stereo) [Compound 43]
16,7.11,Cn1cnnc1SC[C@@]1(c2ccc(F)cc2)OC[C@@H](COc2ccc(N3CCN(c4ccc(-n5cnn(C6CCCC6)c5=O)cc4)CC3)cc2)O1 (relative stereo) [Compound 35]
17,6.80,CCC(CC)n1ncn(-c2ccc(N3CCN(c4ccc(OC[C@H]5CO[C@](CSc6ncnn6C)(c6ccc(F)cc6)O5)cc4)CC3)cc2)c1=O (relative stereo) [Compound 64]
